Reference: PubChem BioAssay (NCI)
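The compound was tested at five concentrations on cells cultured in 96-well plates, with a 48-hour exposure period. TGI: concentration producing complete growth inhibition.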

Experiments:
Assay in all cases: inhibition of tumour cell growth, NCI panel, 48 h
RXF 393 renal = test system: RXF 393 renal
UACC-257 melanoma = test system: UACC-257 melanoma
SK-MEL-5 melanoma = test system: SK-MEL-5 melanoma
HCT-116 colon = test system: HCT-116 colon
KM12 colon = test system: KM12 colon
MCF7 breast = test system: MCF7 breast
LOX IMVI melanoma = test system: LOX IMVI melanoma
786-0 renal = test system: 786-0 renal
HCC-2998 colon = test system: HCC-2998 colon
COLO 205 colon = test system: COLO 205 colon
SF-268 CNS = test system: SF-268 CNS
OVCAR-3 ovarian = test system: OVCAR-3 ovarian
HOP-92 NSCLC = test system: HOP-92 NSCLC
SNB-75 CNS = test system: SNB-75 CNS
MOLT-4 leukemia = test system: MOLT-4 leukemia
HCT-15 colon = test system: HCT-15 colon
HS 578T breast = test system: HS 578T breast
NCI-H23 lung = test system: NCI-H23 lung
CCRF-CEM leukemia = test system: CCRF-CEM leukemia
BT-549 breast = test system: BT-549 breast
MDA-MB-231 breast = test system: MDA-MB-231 breast
DU-145 prostate = test system: DU-145 prostate
SW-620 colon = test system: SW-620 colon
MDA-MB-435 = test system: MDA-MB-435
SN12C renal = test system: SN12C renal
UO-31 renal = test system: UO-31 renal
HL-60(TB) leukemia = test system: HL-60(TB) leukemia
A549 NSCLC = test system: A549 NSCLC
RPMI-8226 leukemia = test system: RPMI-8226 leukemia
OVCAR-8 ovarian = test system: OVCAR-8 ovarian
SNB-19 CNS = test system: SNB-19 CNS
HOP-62 NSCLC = test system: HOP-62 NSCLC
UACC-62 melanoma = test system: UACC-62 melanoma
SK-MEL-28 melanoma = test system: SK-MEL-28 melanoma
SF-295 CNS = test system: SF-295 CNS
M14 melanoma = test system: M14 melanoma
SK-OV-3 ovarian = test system: SK-OV-3 ovarian
NCI-H226 lung = test system: NCI-H226 lung
CAKI-1 renal = test system: CAKI-1 renal
PC-3 prostate = test system: PC-3 prostate
SF-539 CNS = test system: SF-539 CNS
EKVX NSCLC = test system: EKVX NSCLC
MDA-N = test system: MDA-N
IGROV1 ovarian = test system: IGROV1 ovarian
NCI-H522 lung = test system: NCI-H522 lung
SK-MEL-2 melanoma = test system: SK-MEL-2 melanoma
TK-10 renal = test system: TK-10 renal

Measured: TGI

O=P1(c2ccccc2)c2ccccc2CCc2ccccc21
> 100 µM: all assays above
